Here are results for twelve molecules from ChEMBL document CHEMBL1201862, “PubChem BioAssay data set” (2004).

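Five concentrations, 48 hours, 96-well plates. GI50 marks 50% less growth.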 Active and inactive are the calls of the source. Rule as the data show it: active = GI50 up to about 1.1 µM and inactive = higher. Residues, ends and D or L forms follow the SMILES beside them. *: point of attachment. Boc = CC(C)(C)OC(=O)*; OBn = c1ccc(CO*)cc1; Bn = c1ccc(C*)cc1

Some test systems named below: SK-MEL-2; TK-10; M14; SN12C; LOX IMVI; MCF7; OVCAR-8; SK-OV-3; CAKI-1; OVCAR-4; PC-3; U-251; SF-539; SNB-75; RPMI-8226; A549; HOP-92; MDA-N.
Experiment in all cases: inhibition of tumour cell growth, NCI panel, 48 h

Consider `COC(=O)Cc1ccc2c(c1)Sc1ccc(CC(=O)OC)cc1N2C`, for which the GI50 is 51.4 µM (inactive) in the assay with SK-MEL-2; 58.3 µM (inactive) with TK-10; 30.3 µM (inactive) in the assay on M14; 33.7 µM (inactive) in the assay with SN12C; 14.3 µM (inactive) with LOX IMVI; 9.57 µM (inactive) in the assay on MCF7. Moreover, the GI50 was 34.3 µM (inactive) with OVCAR-8; 38.3 µM (inactive) with SK-OV-3; 11.6 µM (inactive) in the assay with CAKI-1; 28.3 µM (inactive) with OVCAR-4; 25.8 µM (inactive) in the assay on PC-3; 19.4 µM (inactive) in the assay on U-251. Also, the GI50 in the assay with SF-539 was 36.3 µM (inactive); in the assay on SNB-75 it was > 47.2 µM (inactive); in the assay with RPMI-8226, 39.1 µM (inactive); in the assay on A549, 24 µM (inactive); in the assay with HOP-92, 24.6 µM (inactive).

As to `Cc1csc2n(C)c(=O)c3ccccc3[n+]12`, the GI50 in the assay on SK-MEL-2, in the assay on TK-10, in the assay with M14, in the assay on SN12C, in the assay with LOX IMVI and in the assay on MDA-N was > 100 µM (inactive) in each case. For the same molecule, the GI50 with MCF7, in the assay on OVCAR-8, with SK-OV-3, with CAKI-1, in the assay with OVCAR-4 and in the assay with PC-3 was > 100 µM (inactive) throughout. In addition, the GI50 in the assay on U-251, in the assay with SF-539, in the assay on RPMI-8226 and in the assay with A549 was > 100 µM (inactive) throughout.

Regarding `CCC(C=O)P1(=O)OC(C)(C)CN1C(C)(C)C` (stereo not drawn), the GI50 in the assay with SK-MEL-2 is 34.9 µM (inactive); with TK-10, 93.3 µM (inactive); in the assay with M14, > 100 µM (inactive); with LOX IMVI it was > 100 µM (inactive); in the assay on MCF7 it was 84.3 µM (inactive); in the assay on OVCAR-8, > 100 µM (inactive). In addition, the GI50 in the assay on SK-OV-3 was 68.1 µM (inactive); with CAKI-1, > 100 µM (inactive); in the assay with OVCAR-4, > 100 µM (inactive); in the assay with PC-3, 84.3 µM (inactive); in the assay on U-251 it was > 100 µM (inactive); in the assay with SF-539, > 100 µM (inactive). Also, the GI50 is 65.3 µM (inactive) in the assay with RPMI-8226 and > 100 µM (inactive) in the assay on A549.

`CC(C)CC(NC(=O)C(Cc1ccccc1)NC(=O)C(COCc1ccccc1)NC(=O)OC(C)(C)C)C(=O)OCc1ccccc1` (stereo not drawn) (Boc-Ser(Bn)-Phe-Leu-OBn; configuration not given here): the GI50 in the assay on SK-MEL-2 is 56.6 µM (inactive); in the assay on TK-10 it was 34 µM (inactive); in the assay on M14, 37.1 µM (inactive); with SN12C, 25.8 µM (inactive); in the assay on LOX IMVI it was 19.8 µM (inactive); in the assay with MDA-N, 69 µM (inactive). Besides, the GI50 with MCF7 is 37.9 µM (inactive); in the assay on OVCAR-8, 18.7 µM (inactive); in the assay on SK-OV-3, 36.4 µM (inactive); in the assay on CAKI-1, 30 µM (inactive); in the assay with OVCAR-4 it was 42.7 µM (inactive); in the assay with PC-3, 22.3 µM (inactive). The GI50 with U-251 is 22.3 µM (inactive); with SF-539, 33.9 µM (inactive); with SNB-75 it was 22.1 µM (inactive); in the assay on RPMI-8226 it was 6.95 µM (inactive).

Take `COc1ccc2[nH]c3c(C)c4ccnc(NCCCN(C)CCCNc5ccc([N+](=O)[O-])c6[nH]c7ccccc7c(=O)c56)c4c(C)c3c2c1`: the GI50 in the assay on SK-MEL-2 was 0.731 µM (active); in the assay on TK-10, 0.018 µM (active); with M14, 0.422 µM (active); with SN12C, 0.0524 µM (active); in the assay with LOX IMVI, 0.14 µM (active); with MDA-N it was 0.372 µM (active). The GI50 was 0.0667 µM (active) in the assay on MCF7; 0.472 µM (active) in the assay on OVCAR-8; 0.76 µM (active) with SK-OV-3; 0.466 µM (active) with CAKI-1; 0.132 µM (active) with OVCAR-4; 0.426 µM (active) in the assay on PC-3. Further, the GI50 in the assay on U-251 was 0.0887 µM (active); in the assay on SF-539, 0.106 µM (active); with SNB-75 it was 0.743 µM (active); in the assay on RPMI-8226, 0.0826 µM (active); in the assay on A549, 0.0372 µM (active).

Consider `CC#Cc1ccc(-c2ccccc2)s1`, for which the GI50 in the assay with SK-MEL-2, in the assay with TK-10, in the assay on M14, with SN12C, in the assay with LOX IMVI and with MDA-N was > 100 µM (inactive) each time. Also, the GI50 in the assay on MCF7, in the assay with OVCAR-8, with CAKI-1, in the assay with OVCAR-4, with PC-3 and in the assay on U-251 was > 100 µM (inactive) throughout. For the same molecule, the GI50 in the assay on SF-539, with SNB-75, with A549 and in the assay with HOP-92 was > 100 µM (inactive) in each case.

As to `COc1ccc(CSc2ccccc2Cn2cccc2)cc1OC`, the GI50 was > 100 µM (inactive) in the assay with TK-10; 34.8 µM (inactive) with SN12C; 73.5 µM (inactive) in the assay on LOX IMVI; > 100 µM (inactive) with MDA-N; 36.2 µM (inactive) in the assay on MCF7; > 100 µM (inactive) with OVCAR-8. The GI50 was > 100 µM (inactive) in the assay on SK-OV-3; 93.1 µM (inactive) in the assay on CAKI-1; 39.8 µM (inactive) with OVCAR-4; > 100 µM (inactive) with U-251; > 100 µM (inactive) in the assay on SF-539; > 100 µM (inactive) with SNB-75. Also, the GI50 is 11.6 µM (inactive) in the assay with RPMI-8226 and 98.2 µM (inactive) in the assay on A549.

In the case of `O=[N+]([O-])C(/C(Cl)=C(/Cl)N1CCOCC1)=C1\Nc2ccccc2O1`, the GI50 in the assay on SK-MEL-2, with M14, in the assay with SN12C, in the assay with MCF7, in the assay on OVCAR-8 and in the assay on SK-OV-3 was > 100 µM (inactive) each time. Moreover, the GI50 was > 100 µM (inactive) in the assay on CAKI-1; > 100 µM (inactive) with OVCAR-4; > 100 µM (inactive) in the assay on PC-3; 86.9 µM (inactive) in the assay with U-251; > 100 µM (inactive) in the assay on SF-539; > 100 µM (inactive) in the assay on SNB-75. Further, the GI50 in the assay with RPMI-8226 and with A549 was > 100 µM (inactive) in each case.

Turning to `c1ccc(/N=c2/[nH]c3ccccc3s/c2=N/c2ccccc2)cc1`, the GI50 in the assay with SK-MEL-2 is 77.1 µM (inactive); in the assay with TK-10 it was > 100 µM (inactive); with SN12C, > 100 µM (inactive); in the assay on LOX IMVI it was > 100 µM (inactive); with OVCAR-8, > 100 µM (inactive); with SK-OV-3 it was > 100 µM (inactive). For the same molecule, the GI50 with CAKI-1, in the assay on OVCAR-4, in the assay with PC-3, in the assay with U-251, in the assay on SF-539 and in the assay on SNB-75 was > 100 µM (inactive) throughout. In addition, the GI50 in the assay with RPMI-8226, in the assay with A549 and in the assay on HOP-92 was > 100 µM (inactive) in each case.

On to `S=C=NC1CCC(c2cc3ccccc3s2)(N2CCCCC2)CC1` (stereo not drawn), for which the GI50 was 2 µM (inactive) in the assay with TK-10; 1.86 µM (inactive) in the assay with M14; 1.82 µM (inactive) in the assay with SN12C; 1.64 µM (inactive) with LOX IMVI; 1.77 µM (inactive) in the assay with MDA-N; 2.09 µM (inactive) with MCF7. For the same molecule, the GI50 in the assay with OVCAR-8 is 1.95 µM (inactive); in the assay with SK-OV-3 it was 2.22 µM (inactive); in the assay on CAKI-1, 1.88 µM (inactive); in the assay on OVCAR-4, 1.87 µM (inactive); in the assay on SF-539, 1.95 µM (inactive); in the assay on SNB-75 it was 1.87 µM (inactive). Further, the GI50 in the assay on RPMI-8226 is 1.46 µM (inactive); in the assay on A549, 3.01 µM (inactive); in the assay with HOP-92, 1.68 µM (inactive).

Consider `O=C1Nc2cc([N+](=O)[O-])ccc2C(=O)N2CCC[C@@H]12`, for which the GI50 with SK-MEL-2, in the assay with TK-10, in the assay with M14, in the assay with SN12C, with LOX IMVI and in the assay on MCF7 was > 100 µM (inactive) throughout. Besides, the GI50 in the assay on OVCAR-8, with SK-OV-3, with CAKI-1, in the assay with OVCAR-4, in the assay with PC-3 and in the assay with U-251 was > 100 µM (inactive) each time. The GI50 in the assay with SF-539, in the assay with SNB-75, in the assay on RPMI-8226, in the assay on A549 and in the assay with HOP-92 was > 100 µM (inactive) in each case.

As for `C1CCC2C(C1)CCCC2NC1=NCCO1` (stereo not drawn), the GI50 was > 100 µM (inactive) in the assay with SK-MEL-2; > 100 µM (inactive) with TK-10; 40 µM (inactive) with M14; > 100 µM (inactive) with SN12C; > 100 µM (inactive) in the assay with LOX IMVI; > 100 µM (inactive) in the assay on MDA-N. Also, the GI50 in the assay with MCF7 was 69.2 µM (inactive); in the assay with OVCAR-8 it was > 100 µM (inactive); in the assay on SK-OV-3, > 100 µM (inactive); in the assay on CAKI-1, > 100 µM (inactive); with OVCAR-4 it was > 100 µM (inactive); in the assay on PC-3, 93.5 µM (inactive). Also, the GI50 with U-251 is > 100 µM (inactive); in the assay with SF-539, > 100 µM (inactive); in the assay with SNB-75, 72.8 µM (inactive); in the assay with RPMI-8226, 92.5 µM (inactive); in the assay on A549, > 100 µM (inactive).
